Common to all, as to test: DTP human tumour cell line panel, 48 h
In assay [1] the test system is A498 renal.
For assay [2], the system named is DLD-1 colon.
For assay [3], the system named is HCT-15 colon.
The test system of assay [4] is HL-60(TB) leukemia.
Assay [5] deals with OVCAR-3 ovarian.
Assay [6] deals with HOP-18 NSCLC.
Assay [7] concerns SF-268 CNS.
Assay [8] relates to RXF-631 renal.
Assay [9] deals with MDA-MB-435.
Assay [10] relates to HS 578T breast.
Assay [11] has as its system T-47D breast.

“And” between values parts separate entries of the source, which are not always exact repeats. Equal entries are not always repeated.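 Compound exposure: 48 hours, 5 concentrations, 96-well plates. GI50: concentration for 50% inhibition of growth. TGI marks complete inhibition of growth.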 Some results are limits rather than exact numbers.

This is an account of results in PubChem BioAssay (NCI).

Take `O=C(/C(=C/c1ccccc1)c1ccccc1)N1c2ccccc2CC1c1c[nH]c2ccccc12` (stereo not drawn): the TGI (in general, the concentration giving total growth inhibition) in assay [1] was over 100 µM; in [2], over 100 µM; in assay [3], over 100 µM; in assay [4], over 100 µM; in assay [5], 89.6 µM.
Take `COc1ccc2c(c1)OCCC1=C2SCC2(C)CCN=C12` (stereo not drawn): the TGI in assay [2], in assay [4], in assay [6], in assay [5] and in assay [7] was over 100 µM in each case.
For `C#CCN(C)C(=O)N(CC#C)N=O`, the TGI in [1], in assay [2], in assay [3], in [4], in assay [6] and in assay [5] was over 100 µM throughout. The TGI in [8] and in assay [7] was over 100 µM each time.
As for `CN(C)CCNc1nc(-c2cccs2)cc(-c2cccs2)n1`, the concentration for total growth inhibition (TGI) worked out at 25.4 µM in assay [1], 55.1 µM in assay [2], 33.2 µM in assay [3] and 48.7 µM in [5].
Consider `NS(=O)(=O)c1ccc(NC(=O)COC(=O)c2cccc3c(=O)c4ccccc4[nH]c23)cc1`, for which the TGI in assay [1] was 51.8 µM; in assay [2], over 100 µM; in assay [3], over 100 µM; in assay [4], over 100 µM; in assay [6], 58.9 µM; in assay [5], 47.6 µM. Besides, the TGI in [8] was over 100 µM; in [7] it was 36.9 µM.
For the compound `COc1ccc(C2=NOP(c3ccccc3)(c3ccccc3)(c3ccccc3)C2)cc1`, the TGI in [1] was 89.7 µM; in assay [2], over 61.7 µM; in assay [3], over 53 µM; in assay [4] it was 14 µM; in [6], over 100 µM; in assay [5] it was over 85.5 µM. Further, the TGI in assay [8] and in assay [7] was over 100 µM in each case.
As to `COc1ccc2nc3cccc(C(=O)NCCN(C)C)c3nc2c1`, the TGI in assay [1] is 3.34 µM; in assay [2] it was 5.12 µM; in [3], 6.15 µM; in [4] it was 4.89 µM; in assay [6] it was over 21.8 µM; in assay [5], 5.89 µM. The compound also displayed a TGI in assay [8] of over 100 µM.
In the case of `C[n+]1c(N)n(C(=O)OCc2ccccc2)c(=O)c2c1ncn2C(=O)OCc1ccccc1`, the concentration for total growth inhibition (TGI) in assay [1], in [2], in assay [3], in assay [4], in assay [6] and in assay [5] was over 100 µM throughout. Moreover, the TGI in assay [7] was over 100 µM.
For `CC1=C(C(=O)Nc2ccccc2)C(c2ccc(C(C)C)cc2)C(C(=O)Nc2ccccc2)=C(C)N1`, the TGI was over 72.3 µM in assay [1]; over 100 µM in assay [2]; 61.4 µM in [3]; 30.7 µM in assay [4]; 49.3 µM in [6]; 56.3 µM in [5]. The total growth inhibition concentration (TGI) in assay [8] is over 85.1 µM; in assay [7], over 100 µM.
Turning to `Cc1ccc(NC(=O)CCC(=O)C(C#N)c2ccccc2)cc1C` (stereo not drawn), the TGI in [1], in [2], in [3], in [4], in assay [6] and in assay [5] was over 100 µM throughout. The TGI in assay [8] and in assay [7] was over 100 µM in each case.
In the case of `CC(=O)O[C@H]1C=CC23OC(=O)[C@]1(C)[C@H]2[C@H](C(=O)O)C12CC(=O)[C@@](CO)(CC[C@H]13)C2`, the TGI in assay [2], in assay [3], in assay [4], in assay [6], in assay [5] and in assay [8] was over 100 µM each time. Moreover, the TGI in assay [7] is over 100 µM.
As to `NCP(=O)(O)OCC(=O)O`, the TGI in assay [1], in assay [2], in assay [3], in assay [4], in assay [6] and in [5] was over 100 µM in each case. In assay [7], the TGI is over 100 µM.
Consider `COc1cc(C2c3cc4c(cc3[C@@H](Nc3ccc(N)cc3)C3COC(=O)[C@H]23)OCO4)cc(OC)c1O` (stereo partly drawn), for which the GI50 (as a rule, the concentration at which growth is held to half of that of the control) was 0.781 µM in assay [1]; 0.287 µM and 0.422 µM in [4]; 0.944 µM in [6]; 0.89 µM in [7]. Moreover, the TGI in [1] was 6.39 µM; in assay [2], 22.2 µM; in assay [3] it was 22.6 µM; in assay [4], 0.862 µM and 5.63 µM; in [6], 40.4 µM; in [9], 29.6 µM. Besides, the TGI worked out at 20 µM in assay [5] and 19.3 µM in assay [7].
As for `Cn1cc(NC(=O)c2cc(NC(=O)CCCCCCC(=O)Nc3cc(C(=O)Nc4cc(C(=O)NCCC(=N)N)n(C)c4)n(C)c3)cn2C)cc1C(=O)NCCC(=N)N`, the TGI is 5.28 µM in assay [1]; over 100 µM in assay [2]; over 100 µM in assay [3]; 8.75 µM in assay [4]; over 100 µM in assay [6]; 50.6 µM in assay [5]. Further, in assay [7], the TGI is over 100 µM.
As for `Nc1ccc(C(=O)N/C(=C\c2cccc([N+](=O)[O-])c2)c2nc3c4c(ccc3[nH]2)C(=O)c2ccccc2C4=O)cc1`, the TGI in assay [1] is 57.7 µM; in assay [2] it was over 100 µM; in assay [3], over 100 µM; in assay [6], over 100 µM; in assay [5], over 100 µM; in assay [8], over 100 µM. Further, the TGI in [7] was over 100 µM.
In the case of `CN(C)CC1CCCC/C1=N/OC(=O)c1ccc(Cl)c(Cl)c1` (stereo not drawn), the TGI in assay [1], in [2], in assay [3], in [4], in assay [6] and in assay [5] was over 100 µM each time. Also, the TGI in [8] and in assay [7] was over 100 µM throughout.
For the compound `COC(=O)C1CC(C(=O)OC)c2nc3cc(C)c(C)cc3nc21` (stereo not drawn), the TGI in assay [1], in [2], in [3], in [4], in [6] and in assay [5] was over 100 µM in each case. Moreover, the TGI in assay [8] and in assay [7] was over 100 µM throughout.
On to `COc1ccc(C(=O)O/N=C2/CCC/C2=C\c2ccccc2)cc1`, for which the TGI in assay [1], in assay [2], in assay [3], in assay [4], in assay [6] and in [5] was over 100 µM in each case. For the same compound, the TGI in assay [8] and in assay [7] was over 100 µM in each case.
Consider `COC(=O)Cc1nc2ccccc2o1`, for which the TGI was over 100 µM in assay [1]; over 100 µM in assay [2]; over 100 µM in assay [3]; 41.4 µM in [4]; over 100 µM in assay [6]; over 100 µM in assay [5]. Moreover, the TGI in [8] and in [7] was over 100 µM in each case.
With `Nc1nc(N)c(-c2ccccc2)c(CCC(=O)Nc2ccc(Cl)cc2)n1`, the TGI in [1], in assay [2], in assay [3], in [4], in [6] and in [5] was over 100 µM throughout. The same compound came in with a TGI in assay [7] of over 100 µM.
As to `Nc1c(C(=O)Nc2cccc(Br)c2)sc2nc3c(cc12)C(O)CCC3` (stereo not drawn), the GI50 in [1] was 0.207 µM; in assay [3] it was 0.35 µM; in [4], 0.24 µM; in assay [10] it was 0.395 µM; in [9] it was 0.115 µM; in [5], 0.32 µM. The values for the GI50 in [7] and in assay [11] were 0.682 µM and 13.9 µM, respectively. Moreover, the TGI is 3.91 µM in assay [1]; over 100 µM in assay [3]; 0.757 µM in assay [4]; 12.7 µM in [10]; 0.35 µM in assay [9]; 3.08 µM in [5]. Further, the TGI in [7] was over 57.6 µM; in assay [11], over 100 µM.
`CCOC(=O)Cc1csc(NC(=O)COC(=O)c2ccc(OC)cc2)n1`: the GI50 was over 100 µM in assay [1]; over 100 µM in assay [3]; 0.407 µM in assay [4]; over 100 µM in [10]; over 100 µM in assay [9]; 22.4 µM in [5]. For the same compound, the GI50 is 16.6 µM in [7] and over 100 µM in assay [11]. The TGI in assay [1] is over 100 µM; in [3], over 100 µM; in assay [4] it was 2.63 µM; in assay [10], over 100 µM; in assay [9], over 100 µM; in assay [5], 46.3 µM. In addition, the values for the concentration for total growth inhibition (TGI) in assay [7] and in [11] were 40.9 µM and over 100 µM, respectively.
On to `OCC(O)C(OC1OC(CO)C(O)C(O)C1O)c1nn(-c2ccccc2)c2nc3cc(Cl)ccc3nc12` (stereo not drawn), for which the TGI in [1], in [2], in assay [3], in [5] and in assay [7] was over 100 µM throughout.
`CCCCCc1c(C)[nH]c(/C=C2\N=C(c3ccc[nH]3)C=C2OCc2ccccc2)c1C`: the GI50 was 0.0411 µM and 0.0298 µM in assay [1]; 0.0368 µM and 0.0246 µM in assay [3]; 0.0623 µM in assay [4]; 0.0962 µM and 0.0277 µM in assay [10]; 0.0367 µM and 0.0324 µM in assay [9]; 0.0447 µM and 0.0264 µM in assay [5]. Moreover, the GI50 was 0.0488 µM and 0.0385 µM in assay [7]; 0.0445 µM and 0.0311 µM in [11]. For the same compound, the TGI in [1] is 0.74 µM and 0.219 µM; in assay [3] it was 0.279 µM and 0.15 µM; in assay [4] it was 0.425 µM; in assay [10] it was 0.697 µM and 0.238 µM; in assay [9], 0.296 µM and 0.134 µM; in [5], 0.463 µM and 0.139 µM. Besides, the TGI in [7] was 1.6 µM and 1.33 µM; in [11], 0.741 µM and 1.01 µM.
With `Cc1c(C(=O)O[C@H]2[C@@H]3[C@H](C)CC[C@H]3[C@]3(C)O[C@@]2(C2CCCCC2)C[C@H]3OC(=O)CO)ccc2ccccc12`, the GI50 in assay [1] is 0.0173 µM; in [3], 7.86 µM; in assay [4] it was 9.3 µM; in assay [10], 0.0165 µM; in assay [9], 8.15 µM; in [5], 7.57 µM. Moreover, the GI50 was 3.49 µM in assay [7] and 5.37 µM in assay [11]. For the same compound, the concentration for total growth inhibition (TGI) came to 0.144 µM in [1]; 15.2 µM in assay [3]; 20 µM in [4]; 0.142 µM in assay [10]; 15.4 µM in assay [9]; 14.4 µM in assay [5]. Besides, the TGI in assay [7] was 11.8 µM; in assay [11], 11.6 µM.
With `CCOC(=O)/N=c1/nc(N(C)C)ss1`, the TGI in assay [1], in assay [2], in [3], in [4], in assay [6] and in assay [8] was over 100 µM in each case. This compound had a TGI in assay [7] of over 100 µM.
